Consider 39 compounds from ChEMBL document CHEMBL1129734, “Synthesis and structure-activity relationships of a new model of arylpiperazines. 1. 2-[[4-(o-methoxyphenyl)piperazin-1-yl]methyl]-1, 3-dioxoperhydroimidazo[1,5-alpha]pyridine: a selective 5-HT1A receptor agonist” (J Med Chem, 1996).

In test [1] the target is T1, 5-hydroxytryptamine receptor 1A (Rattus norvegicus, UniProt P19327).
T1 sequence (P19327 whole entry): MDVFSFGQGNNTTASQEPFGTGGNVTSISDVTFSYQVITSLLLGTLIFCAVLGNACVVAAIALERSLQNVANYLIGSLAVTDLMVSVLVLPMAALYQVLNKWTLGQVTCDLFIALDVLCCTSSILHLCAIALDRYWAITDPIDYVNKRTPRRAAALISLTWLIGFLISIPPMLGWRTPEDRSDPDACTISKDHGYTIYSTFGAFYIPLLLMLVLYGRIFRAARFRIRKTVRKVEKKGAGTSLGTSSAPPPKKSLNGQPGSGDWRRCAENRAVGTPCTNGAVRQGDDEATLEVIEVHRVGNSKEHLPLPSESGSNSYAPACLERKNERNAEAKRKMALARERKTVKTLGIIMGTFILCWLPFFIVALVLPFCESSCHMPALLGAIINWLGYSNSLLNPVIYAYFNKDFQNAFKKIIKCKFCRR
Nature of the test: Binding affinity towards rat 5-hydroxytryptamine 1A receptor using [3H]8-OH-DPAT radioligand.

For test [2], the target named is T2, Adrenergic receptor alpha-1 (Rattus norvegicus, UniProt P15823+P23944+P43140).
T2 sequence (P15823 whole entry): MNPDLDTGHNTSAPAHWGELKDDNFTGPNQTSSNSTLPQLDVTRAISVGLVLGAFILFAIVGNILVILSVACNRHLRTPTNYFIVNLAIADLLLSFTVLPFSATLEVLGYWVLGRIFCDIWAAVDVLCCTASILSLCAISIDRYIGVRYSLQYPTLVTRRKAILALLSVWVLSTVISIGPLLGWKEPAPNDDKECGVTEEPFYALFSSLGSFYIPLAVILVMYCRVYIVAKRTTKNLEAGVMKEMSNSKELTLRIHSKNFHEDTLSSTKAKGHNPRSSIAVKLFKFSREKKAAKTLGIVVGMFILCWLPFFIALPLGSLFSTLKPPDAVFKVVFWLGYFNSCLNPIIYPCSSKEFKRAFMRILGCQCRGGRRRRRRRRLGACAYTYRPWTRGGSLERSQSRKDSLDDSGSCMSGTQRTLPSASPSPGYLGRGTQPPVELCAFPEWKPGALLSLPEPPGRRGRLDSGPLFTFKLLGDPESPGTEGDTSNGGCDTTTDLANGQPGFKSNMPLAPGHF
T2 sequence (P23944 whole entry): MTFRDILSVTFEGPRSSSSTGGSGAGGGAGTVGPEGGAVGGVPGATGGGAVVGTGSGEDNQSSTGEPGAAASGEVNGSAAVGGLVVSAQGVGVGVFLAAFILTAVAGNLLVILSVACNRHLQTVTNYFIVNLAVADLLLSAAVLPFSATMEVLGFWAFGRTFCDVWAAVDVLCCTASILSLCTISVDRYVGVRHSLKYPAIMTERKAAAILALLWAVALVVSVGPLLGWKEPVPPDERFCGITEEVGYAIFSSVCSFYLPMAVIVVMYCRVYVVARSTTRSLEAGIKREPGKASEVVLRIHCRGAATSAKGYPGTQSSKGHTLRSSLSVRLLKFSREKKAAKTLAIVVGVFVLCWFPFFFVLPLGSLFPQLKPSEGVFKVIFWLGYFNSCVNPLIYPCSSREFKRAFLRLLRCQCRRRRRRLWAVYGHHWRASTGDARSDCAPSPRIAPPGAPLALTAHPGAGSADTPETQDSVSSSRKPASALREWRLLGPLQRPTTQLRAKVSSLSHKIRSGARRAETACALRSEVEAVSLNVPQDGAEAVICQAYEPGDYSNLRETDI
T2 sequence (P43140 whole entry): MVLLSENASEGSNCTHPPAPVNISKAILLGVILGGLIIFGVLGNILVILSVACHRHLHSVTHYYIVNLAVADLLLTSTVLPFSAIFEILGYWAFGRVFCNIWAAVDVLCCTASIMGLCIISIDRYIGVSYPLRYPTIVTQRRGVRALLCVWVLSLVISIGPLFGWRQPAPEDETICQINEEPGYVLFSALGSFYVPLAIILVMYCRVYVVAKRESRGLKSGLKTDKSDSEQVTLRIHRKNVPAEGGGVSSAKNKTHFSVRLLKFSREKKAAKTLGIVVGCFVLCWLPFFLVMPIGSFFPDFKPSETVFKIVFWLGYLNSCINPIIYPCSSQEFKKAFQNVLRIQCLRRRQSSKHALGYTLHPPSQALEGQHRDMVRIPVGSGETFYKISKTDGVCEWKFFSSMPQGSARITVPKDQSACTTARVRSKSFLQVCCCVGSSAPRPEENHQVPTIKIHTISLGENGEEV
The experiment in a line: Binding affinity towards alpha-1 adrenergic receptor using [3H]prazosin radioligand. The class given is protein assay.

The target in the next test is D(2) dopamine receptor (Rattus norvegicus, UniProt P61169). Nature of the test: Binding affinity towards dopamine receptor D2 using [3H]-raclopride radioligand.
Sequence of D(2) dopamine receptor (P61169 whole entry): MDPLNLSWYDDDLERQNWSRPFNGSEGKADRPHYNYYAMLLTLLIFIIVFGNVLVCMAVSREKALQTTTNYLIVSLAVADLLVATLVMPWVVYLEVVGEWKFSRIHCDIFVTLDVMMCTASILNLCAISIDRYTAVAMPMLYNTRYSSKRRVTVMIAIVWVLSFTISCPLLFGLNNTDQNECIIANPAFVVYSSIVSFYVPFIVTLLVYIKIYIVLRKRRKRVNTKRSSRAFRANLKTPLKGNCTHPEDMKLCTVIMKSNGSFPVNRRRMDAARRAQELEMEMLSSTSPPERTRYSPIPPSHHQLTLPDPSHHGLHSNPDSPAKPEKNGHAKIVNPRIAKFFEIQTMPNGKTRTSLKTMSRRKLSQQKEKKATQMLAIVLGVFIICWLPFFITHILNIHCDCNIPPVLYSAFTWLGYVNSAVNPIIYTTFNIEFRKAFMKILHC

The term Ki denotes a measure of affinity in units of concentration, obtained from inhibition or displacement. Higher therefore signals a looser hold on the target.

SMILES strings stand for the structures.

Regarding `O=C1C2CCCN2C(=O)N1CCCN1CCN(c2ccccc2)CC1` (centres undefined), the Ki is 19.2 nM in test [1], 15.4 nM in test [2] and more than 1000 nM on D(2) dopamine receptor.

As for `O=C1C2CCCN2C(=O)N1CCCCN1CCN(c2ccccc2)CC1` (centres undefined), the Ki in test [1] was 24.8 nM; in test [2] it was 26.4 nM; at D(2) dopamine receptor, 416 nM.

Turning to `COc1ccccc1N1CCN(CCCN2C(=O)C3CCCN3C2=O)CC1` (centres undefined), the Ki in test [1] was 4.4 nM; in test [2], 3.1 nM; on D(2) dopamine receptor, more than 1000 nM.

Take `O=C1C2CCCN2C(=O)N1CN1CCN(c2ccc([N+](=O)[O-])cc2)CC1` (centres undefined): the Ki in test [1] was more than 1000 nM; in test [2] it was more than 10000 nM; on D(2) dopamine receptor it was more than 10000 nM.

As to `O=C1C2CCCN2C(=O)N1CCN1CCN(c2ccc(F)cc2)CC1` (centres undefined), the Ki in test [1] is more than 10000 nM; in test [2] it was more than 1000 nM; at D(2) dopamine receptor it was more than 10000 nM.

In the case of `O=C1C2CCCCN2C(=O)N1CCN1CCN(c2ccccc2)CC1` (centres undefined), the Ki (in test [1]; in test [2]; at D(2) dopamine receptor) was more than 1000 nM each time.

Take `O=C1C2CCCN2C(=O)N1CCCN1CCN(c2ccc(F)cc2)CC1` (centres undefined): the Ki in test [1] is more than 1000 nM; in test [2] it was 25.2 nM; on D(2) dopamine receptor it was more than 1000 nM.

Take `O=C1C2CCCCN2C(=O)N1CCN1CCN(c2cccc(Cl)c2)CC1` (centres undefined): the values for the Ki (in test [1]; in test [2]; at D(2) dopamine receptor) were 128 nM, 375 nM and more than 1000 nM, respectively.

Regarding `O=C1C2CCCCN2C(=O)N1CN1CCN(c2ccccc2)CC1` (centres undefined), the Ki in test [1] was 101 nM; in test [2] it was more than 1000 nM; on D(2) dopamine receptor it was more than 10000 nM.

Take `COc1ccccc1N1CCN(CCCN2C(=O)C3CCCCN3C2=O)CC1` (centres undefined): the Ki was 4.1 nM in test [1], 9.9 nM in test [2] and more than 1000 nM on D(2) dopamine receptor.

For the compound `O=C1C2CCCCN2C(=O)N1CCCN1CCN(c2ccc(F)cc2)CC1` (centres undefined), the values for the Ki (in test [1]; in test [2]; at D(2) dopamine receptor) were 598 nM, 25.8 nM and more than 1000 nM, respectively.

Take `O=C1C2CCCCN2C(=O)N1CCCN1CCN(c2cccc(C(F)(F)F)c2)CC1` (centres undefined): the inhibitory constant (Ki) in test [1] is 5.7 nM; in test [2], 90.4 nM; on D(2) dopamine receptor, more than 1000 nM.

For `O=C1C2CCCCN2C(=O)N1CCN1CCN(c2ccc(F)cc2)CC1` (centres undefined), the Ki was more than 10000 nM in test [1], more than 1000 nM in test [2] and more than 10000 nM on D(2) dopamine receptor.

In the case of `O=C1C2CCCN2C(=O)N1CCN1CCN(c2ccccc2)CC1` (centres undefined), the Ki (in test [1]; in test [2]; on D(2) dopamine receptor) was more than 1000 nM in each case.

Take `O=C1C2CCCN2C(=O)N1CCCCN1CCN(c2cccc(Cl)c2)CC1` (centres undefined): the Ki in test [1] was determined as 11.3 nM; in test [2], 9.6 nM; on D(2) dopamine receptor, 151 nM.

Take `O=C1C2CCCN2C(=O)N1CCN1CCN(c2ccc([N+](=O)[O-])cc2)CC1` (centres undefined): the Ki (in test [1]; in test [2]; on D(2) dopamine receptor) was more than 10000 nM in each case.

As for `O=C1C2CCCN2C(=O)N1CCCN1CCN(c2cccc(Cl)c2)CC1` (centres undefined), the Ki in test [1] was 55.9 nM; in test [2], 21.6 nM; on D(2) dopamine receptor it was more than 1000 nM.

Take `O=C1C2CCCCN2C(=O)N1CN1CCN(c2ccc([N+](=O)[O-])cc2)CC1` (centres undefined): the Ki was more than 1000 nM in test [1], more than 10000 nM in test [2] and more than 10000 nM at D(2) dopamine receptor.

For the compound `O=C1C2CCCCN2C(=O)N1CN1CCN(c2cccc(C(F)(F)F)c2)CC1` (centres undefined), the Ki in test [1] was 78.6 nM; in test [2], more than 1000 nM; at D(2) dopamine receptor, more than 1000 nM.

As to `COc1ccccc1N1CCN(CCN2C(=O)C3CCCCN3C2=O)CC1` (centres undefined), the Ki is 45.5 nM in test [1], 131 nM in test [2] and 246 nM at D(2) dopamine receptor.

As for `O=C1C2CCCN2C(=O)N1CCCN1CCN(c2ccc([N+](=O)[O-])cc2)CC1` (centres undefined), the Ki is more than 10000 nM in test [1], more than 1000 nM in test [2] and more than 10000 nM on D(2) dopamine receptor.

As for `O=C1C2CCCCN2C(=O)N1CCCN1CCN(c2ccccc2)CC1` (centres undefined), the Ki was 154 nM in test [1], 11.4 nM in test [2] and more than 1000 nM at D(2) dopamine receptor.

In the case of `O=C1C2CCCN2C(=O)N1CCCCN1CCN(c2ccc(F)cc2)CC1` (centres undefined), the Ki in test [1] was 89.9 nM; in test [2], 47.2 nM; on D(2) dopamine receptor, more than 1000 nM.

As to `COc1ccccc1N1CCN(CCCCN2C(=O)C3CCCCN3C2=O)CC1` (centres undefined), the Ki in test [1] is 8.8 nM; in test [2], 8.6 nM; at D(2) dopamine receptor it was more than 1000 nM.

Consider `O=C1C2CCCCN2C(=O)N1CCCCN1CCN(c2ccccc2)CC1` (centres undefined), for which the figures for the Ki (in test [2]; at D(2) dopamine receptor) were 18.6 nM and more than 1000 nM, respectively.

In the case of `O=C1C2CCCN2C(=O)N1CCN1CCN(c2cccc(C(F)(F)F)c2)CC1` (centres undefined), the values for the Ki (in test [1]; in test [2]; at D(2) dopamine receptor) were 123 nM, more than 1000 nM and more than 1000 nM, respectively.

In the case of `O=C1C2CCCN2C(=O)N1CN1CCN(c2ccccc2)CC1` (centres undefined), the Ki was 85.3 nM in test [1], 1000 nM in test [2] and more than 10000 nM at D(2) dopamine receptor.

As to `O=C1C2CCCN2C(=O)N1CCN1CCN(c2cccc(Cl)c2)CC1` (centres undefined), the Ki is 418 nM in test [1], 500 nM in test [2] and more than 1000 nM at D(2) dopamine receptor.

Take `O=C1C2CCCCN2C(=O)N1CCCCN1CCN(c2cccc(Cl)c2)CC1` (centres undefined): the figures for the Ki (in test [1]; in test [2]; on D(2) dopamine receptor) were 7.2 nM, 12.1 nM and 129 nM, respectively.

As for `O=C1C2CCCCN2C(=O)N1CCCCN1CCN(c2ccc([N+](=O)[O-])cc2)CC1` (centres undefined), the Ki (in test [1]; in test [2]; at D(2) dopamine receptor) was more than 1000 nM in each case.

As for `O=C1C2CCCCN2C(=O)N1CCCN1CCN(c2cccc(Cl)c2)CC1` (centres undefined), the results for the Ki (in test [1]; in test [2]; at D(2) dopamine receptor) were 53.6 nM, 17.9 nM and more than 1000 nM, respectively.

Regarding `O=C1C2CCCN2C(=O)N1CN1CCN(c2cccc(Cl)c2)CC1` (centres undefined), the Ki in test [1] is 58.4 nM; in test [2], 292 nM; at D(2) dopamine receptor, more than 10000 nM.

Take `O=C1C2CCCCN2C(=O)N1CCCN1CCN(c2ccc([N+](=O)[O-])cc2)CC1` (centres undefined): the Ki in test [1] was more than 10000 nM; in test [2] it was more than 1000 nM; at D(2) dopamine receptor, more than 10000 nM.

With `O=C1C2CCCN2C(=O)N1CN1CCN(c2cccc(C(F)(F)F)c2)CC1` (centres undefined), the Ki was 120 nM in test [1], more than 1000 nM in test [2] and more than 1000 nM at D(2) dopamine receptor.

`COc1ccccc1N1CCN(CCN2C(=O)C3CCCN3C2=O)CC1` (centres undefined): the figures for the inhibition constant Ki (in test [1]; in test [2]; on D(2) dopamine receptor) were 234 nM, 190 nM and 361 nM, respectively.

For the compound `COc1ccccc1N1CCN(CN2C(=O)C3CCCN3C2=O)CC1` (centres undefined), the Ki in test [1] is 34.9 nM; in test [2], 500 nM; on D(2) dopamine receptor, more than 1000 nM.

With `O=C1C2CCCCN2C(=O)N1CCCCN1CCN(c2ccc(F)cc2)CC1` (centres undefined), the Ki in test [1] amounted to 57.9 nM; in test [2] it was 10.4 nM; at D(2) dopamine receptor, 615 nM.

For `O=C1C2CCCN2C(=O)N1CN1CCN(c2ccc(F)cc2)CC1` (centres undefined), the Ki is 500 nM in test [1], more than 1000 nM in test [2] and more than 10000 nM on D(2) dopamine receptor.

`COc1ccccc1N1CCN(CCCCN2C(=O)c3ccccc3C2=O)CC1` [NAN-190] yielded a Ki on D(2) dopamine receptor of 64 nM. This lies in the double-digit nanomolar range.
